Experiments:
[1] = target: T1, Aurora A kinase domain (Homo sapiens, UniProt O14965); test: HTRF kinase assay, Aurora A; assay type: biochemical
T1 construct: human Aurora A kinase domain (residues 122-403 in the pET24-d vector); His-tag (cleaved yes); made in house; host or cells: E. coli BL21 (DE3) Rosetta
T1 sequence (O14965 122-403): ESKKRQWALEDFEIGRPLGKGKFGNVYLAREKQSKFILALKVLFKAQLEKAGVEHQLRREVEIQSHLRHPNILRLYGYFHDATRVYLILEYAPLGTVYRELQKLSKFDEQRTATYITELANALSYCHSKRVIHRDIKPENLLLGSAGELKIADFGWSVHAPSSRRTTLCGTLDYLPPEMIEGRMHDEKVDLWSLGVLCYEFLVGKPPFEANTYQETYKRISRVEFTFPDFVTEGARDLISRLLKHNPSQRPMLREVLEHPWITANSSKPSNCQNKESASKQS
Method: The clone of human Aurora A kinase domain (residues 122-403 in the pET24-d vector) was kindly provided by the Montoya laboratory (University of Copenhagen). The construct was transformed into E. coli BL21 (DE3) Rosetta cells and protein expression was induced with 0.5 mM IPTG at 20° C. for 12 hours. The cells were harvested at 6,000×g for 25 min at 4° C. and resuspended in lysis buffer (50 mM Tris-HCl, 500 mM NaCl, 1 mM PMSF, pH=8.0). Disruption of the cells was performed by sonication cooled on ice, after which the debris were removed by centrifugation at 110,000×g for 30 min at 4° C. Aurora A was purified by affinity chromatography using NiNTA resin from Qiagen following the manufacturer's instructions. After loading, the resin was washed with lysis buffer, followed by a second wash with 6% elution buffer (50 mM Tris-HCl, 500 mM NaCl, 500 mM imidazole, pH=8.0). Protein was eluted with 100% elution buffer. The eluate was exchanged into final buffer (20 mM Tris-HCl, 200 mM NaCl, 0.5 mM EDTA, 2 mM DTT, pH=8.0) using a HiPrep 26/10 desalting column (GE Healthcare). The His-tag was cleaved with TEV protease at 4° C. overnight. […] Protein concentration was determined by UV absorbance. […]
Aurora A and AuroraB kinases were assayed using the homogeneous time-resolved fluorescence (HTRF) KinEASE STK2 kit from Cisbio (France). […] After incubation at room temperature for one hour, fluorescence was measured at 620 nm (europium cryptate) and 665 nm (XL-665) after excitation at 317 nm (lag time 60 μs, integration time 500 μs) using a Tecan Infinite M1000 PRO microplate reader (Greiner 384-well plates, white, non-binding, small volume). The ratio of fluorescence (665 nm/620 nm) was calculated for each well and the results were expressed as follows: specific signal=ratio (sample)−ratio (negative control), where ratio=665 nm/620 nm×10^4. Compounds were measured in threefold serial dilutions at 10 different concentrations, covering the concentration range from no to full inhibition. Each concentration was measured in duplicates, and two independent determinations were made for each IC50 value. […]

[2] = test system: pThr288 Aurora A; test: Phosphorylation of Aurora A Thr288 in cells; assay type: cell-based, human
Method: (§1) HeLa Kyoto cells were cultured in high-glucose DMEM with GlutaMAX (Life Technologies) media supplemented with 10% fetal calf serum (FCS) in a humidified 5% CO2 incubator at 37° C. For plasmid transfections, cells were seeded at 80-90% confluence. 4 μg of plasmid DNA in 100 μl OptiMEM and 4 μl of Lipofectamine 2000 (Life Technologies) in 100 μl OptiMEM were incubated in parallel for 5 minutes, mixed for 20 minutes and added to each well. All Aurora A clones were constructed using full-length Aurora A as a template with appropriate PCR primer pairs. […] GFP-Aurora AR137A and GFP-Aurora AW277A were engineered using a site directed mutagenesis kit (Agilent Technologies, no. 210515) with appropriate primers. For determining the mitotic index and the chromosome misalignment phenotype, cells were incubated with various concentrations of compounds for 20 h before analysis. Cells were likewise treated with 0.25 μM MLN8237 (Selleckchem, no. S1133) or 5 μM ZM447439 (Selleckchem, no. S1103). For flow cytometry analysis, 50 nM […] and 2.5 μM ZM447439 were used. For rescue experiments, HeLa Kyoto cells were first transfected with GFP-Aurora A, GFP-Aurora AR137A or GFP-Aurora AW277A for 20 h, followed by incubation with 9 for another 20 h before cells were fixed with cold methanol and stained. To assess the impact of compound 9 on cell cycle progression, DNA content was analyzed after propidium iodide staining using FACS (BD Accuri C6 flow cytometer).
For immunofluorescence, cells were fixed in cold methanol, washed in PBT (PBS supplemented with 0.05% Tween-20) and stained with the following primary antibodies: 1:200 rabbit anti-pT288 (Cell Signaling, C39D8), 1:200 rabbit anti-pH3S10 (Cell Signaling, D2C8), 1:500 mouse anti-α-tubulin (Transduction Laboratories, 612709), 1:300 mouse anti-GFP (MAB3580, Millipore), 1:200 anti-TPX2 (Santa Cruz Biotechnology, sc-32863), anti-Aurora A (Invitrogen, 458900). Secondary antibodies were anti-mouse conjugated to Alexa488 or Alexa568, as well as anti-rabbit conjugated to Alexa488 or Alexa568, all used at 1:500 (Invitrogen). […]

[3] = test system: HeLa Kyoto cells; test: Chromosome misalignment during metaphase; assay type: cell-based, human; details: HeLa Kyoto cells, 0.25 μM
Method: as §1
(§2) For immunofluorescence, cells were fixed in cold methanol, washed in PBT (PBS supplemented with 0.05% Tween-20) and stained with the following primary antibodies: 1:200 rabbit anti-pT288 (Cell Signaling, C39D8), 1:200 rabbit anti-pH3S10 (Cell Signaling, D2C8), 1:500 mouse anti-α-tubulin (Transduction Laboratories, 612709), 1:300 mouse anti-GFP (MAB3580, Millipore), 1:200 anti-TPX2 (Santa Cruz Biotechnology, sc-32863), anti-Aurora A (Invitrogen, 458900). Secondary antibodies were anti-mouse conjugated to Alexa488 or Alexa568, as well as anti-rabbit conjugated to Alexa488 or Alexa568, all used at 1:500 (Invitrogen). Confocal images were acquired on a Zeiss LSM 710 confocal microscope equipped with a Axiocam MRm (B/VVW) CCD camera using a 63×NA 1.0 oil objective and processed in ImageJ and Adobe Photoshop, maintaining relative image intensities within a series.

[4] = test system: Aurora A localization, HeLa Kyoto cells; test: Aurora A localization at the mitotic spindle (immunofluorescence); assay type: cell-based, human; details: overnight
Method: as §1
Secondary antibodies were anti-mouse conjugated to Alexa488 or Alexa568, as well as anti-rabbit conjugated to Alexa488 or Alexa568, all used at 1:500 (Invitrogen). Confocal images were acquired on a Zeiss LSM 710 confocal microscope equipped with a Axiocam MRm (B/VVW) CCD camera using a 63×NA 1.0 oil objective and processed in ImageJ and Adobe Photoshop, maintaining relative image intensities within a series.

[5] = test system: Aurora A (pT288); details: read-out: cellular IC50 (pT288) (reported); cited from earlier work
[6] = test system: Aurora B (pH3); details: pH 3; read-out: cellular IC50 (pH3) (reported); cited from earlier work
[7] = target: T2, Aurora A (Trp277) (Homo sapiens, UniProt O14965); test: Intrinsic tryptophan fluorescence; assay type: binding
T2 construct: human Aurora A kinase domain (residues 122-403 in the pET24-d vector); His-tag (cleaved yes); made in house; host or cells: E. coli BL21 (DE3) Rosetta
T2 sequence (O14965 122-403): T1 sequence (O14965 122-403)
Method: Binding experiments were performed by mixing Aurora A (500 nM, 375 nM, and 150 nM for 77, 9, and 88, respectively) with varying concentrations (0-100 μM) of the different compounds in buffer (final DMSO concentration 1%), followed by incubation for 15 min at room temperature. Tryptophan fluorescence spectra were recorded at room temperature using an Infinite M1000 Pro plate reader (Tecan) and Corning 96 well half area, flat bottom, non-binding surface, black polystyrene plates. Excitation occurred at 284 nm (bandwidth ±5 nm) and emission at 340 nm (bandwidth ±10 nm). The gain was calculated from the well with the highest protein concentration. Each measurement was done in triplicate.

[8] = test system: phospho-Histone H3 Ser10 (Aurora B); test: Phospho-Histone H3 Ser10 in cells (Aurora B activity); assay type: cell-based, human; details: treated cells
Method: as §1, §2

[9] = test system: HeLa Kyoto cells; test: DNA content analysis by flow cytometry; assay type: cell-based, human; details: 48 h, 9 even at 10 μM
Method: as §1, with “For rescue experiments, HeLa Kyoto cells were first transfected with GFP-Aurora A, GFP-Aurora AR137A or GFP-Aurora AW277A for 20 h, followed by incubation with 9 for another 20 h before cells were fixed with cold methanol and stained.” left out

CCc1ccc(N=C2SC(Cc3ccnc(N)c3)C(=O)N2C)cc1 (racemic) [rac-91]
fold less active than precursor 79 ([1]; Aurora A inhibition relative to 79): 7 fold

CCc1ccc(N=C2SC(Cc3ccnc(Nc4ccc(C(=O)O)cn4)c3)C(=O)N2C)cc1 (racemic) [rac-92]
IC50 ([1]; free Aurora A, 20 μM ATP, HTRF, read-out: IC50 Aurora A (biochemical)): 24 nM
activity in cells [2]: did not show any activity
cellular pThr288 Aurora-A levels ([2]; overnight incubation): does not reduce pThr288 levels

COc1cc(Nc2ncc3c(n2)-c2ccc(Cl)cc2C(c2c(F)cccc2OC)=NC3)ccc1C(=O)O [Compound 1, Alisertib, reference compound]
misaligned chromosomes [3]: ~100%
Aurora A localization at spindle microtubules and centrosomes [4]: present at centrosomes but not on spindle microtubules
Aurora A localization at spindle microtubules and centrosomes ([4]; listed as alisertib): notably displaced from the spindle microtubules

CCc1ccc(N=C2SC(=Cc3ccncc3)C(=O)N2CCOC)cc1 [Compound 77]
tryptophan fluorescence, environment of Trp277 [7]: perturbed the environment of Trp277

CCc1ccc(N=C2SC(=Cc3ccnc(Nc4ccc(-c5nn[nH]n5)cc4)c3)C(=O)N2C)cc1 [Compound 88]
tryptophan fluorescence, environment of Trp277 [7]: perturbed the environment of Trp277

COc1cc2c(Nc3ccc(NC(=O)c4ccccc4)cc3)ncnc2cc1OCCCN1CCOCC1 [Compound 94, ZM447439, reference compound]
distribution of phospho-Histone H3 Ser10 [8]: absent
accumulation of cells with 8N and 16N DNA contents [9]: massive accumulation

O=C(O)[C@]1(Cc2cccc(Nc3nccs3)n2)CC[C@@H](Oc2cccc(Cl)c2F)CC1 [MK-5108]
IC50 [6]: > 10000 nM
